Experimental data reported in ChEMBL document CHEMBL3352218, “Structural basis for inhibition of mycobacterial and human adenosine kinase by 7-substituted 7-(Het)aryl-7-deazaadenine ribonucleosides” (J Med Chem, 2014).
≈ marks a conversion by molar mass, not a printed value. Calls of active or inactive are those of the source. The calls are words filed in the database; no cut-off is given here.

Legend:
BJ = assay: Cytotoxicity against human BJ cells by MTT assay; assay type: functional
MRC5 = assay: Cytotoxicity against human MRC5 cells by MTT assay; assay type: functional
Adenosine kinase [1] = biological target: T1, Adenosine kinase (Homo sapiens, UniProt P55263); assay: Inhibition of human ADK expressed in Escherichia coli BL21(DE3) cells using [3H]adenosine by liquid scintillation counting method
Target sequence in this assay (P55263 whole entry): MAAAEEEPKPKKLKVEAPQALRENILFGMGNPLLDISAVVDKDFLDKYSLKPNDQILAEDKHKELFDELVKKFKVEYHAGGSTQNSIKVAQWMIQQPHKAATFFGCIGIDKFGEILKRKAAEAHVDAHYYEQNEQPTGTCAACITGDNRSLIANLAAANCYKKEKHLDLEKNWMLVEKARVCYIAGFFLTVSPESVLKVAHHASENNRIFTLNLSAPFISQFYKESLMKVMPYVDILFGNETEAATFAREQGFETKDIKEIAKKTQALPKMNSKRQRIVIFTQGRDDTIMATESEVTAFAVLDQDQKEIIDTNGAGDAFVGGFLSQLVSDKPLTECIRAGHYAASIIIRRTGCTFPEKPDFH

[2] = Inhibition of Mycobacterium tuberculosis ADK expressed in Escherichia coli BL21(DE3) cells using [3H]adenosine by liquid scintillation counting method
[3] = tested on: Mycobacterium tuberculosis; assay: Antimycobacterial activity against Mycobacterium tuberculosis H37Rv My 331/88 assessed as microbial growth inhibition incubated for 14 days; assay type: functional; conditions: H37Rv My 331/88, 336 h
[4] = tested on: Mycobacterium tuberculosis; assay: Activity of Mycobacterium tuberculosis ADK expressed in Escherichia coli BL21(DE3) cells assessed as compound phosphorylation by measuring conversion of compound to 5'-phosphate
Adenosine kinase [5] = biological target: T1, Adenosine kinase; assay: Binding affinity to human ADK expressed in Escherichia coli BL21(DE3) cells assessed as relative STD enhancements of signal from H-1' at 500 uM by 1H STD NMR spectroscopy
Target sequence in this assay (P55263 2-362 limits assumed): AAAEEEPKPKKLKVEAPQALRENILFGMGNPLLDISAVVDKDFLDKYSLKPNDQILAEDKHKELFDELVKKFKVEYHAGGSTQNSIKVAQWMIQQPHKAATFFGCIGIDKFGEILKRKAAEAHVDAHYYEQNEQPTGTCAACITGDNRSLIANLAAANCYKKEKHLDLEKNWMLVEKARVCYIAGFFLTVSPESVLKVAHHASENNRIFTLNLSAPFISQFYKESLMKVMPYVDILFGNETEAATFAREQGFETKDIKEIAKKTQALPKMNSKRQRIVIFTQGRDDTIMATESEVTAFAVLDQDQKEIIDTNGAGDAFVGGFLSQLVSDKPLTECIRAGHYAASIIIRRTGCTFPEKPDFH

Adenosine kinase [6] = biological target: T1, Adenosine kinase; assay: Binding affinity to human ADK expressed in Escherichia coli BL21(DE3) cells assessed as relative STD enhancements of signal from H-2 at 500 uM by 1H STD NMR spectroscopy
Target sequence in this assay (P55263 2-362 limits assumed): as above

Adenosine kinase [7] = biological target: T1, Adenosine kinase; assay: Binding affinity to human ADK expressed in Escherichia coli BL21(DE3) cells assessed as relative STD enhancements of signal from H-8 at 500 uM by 1H STD NMR spectroscopy
Target sequence in this assay (P55263 2-362 limits assumed): as above

[8] = tested on: Mycobacterium tuberculosis; assay: Binding affinity to Mycobacterium tuberculosis ADK expressed in Escherichia coli BL21(DE3) cells assessed as relative STD enhancements of signal from H-1' at 500 uM by 1H STD NMR spectroscopy
[9] = tested on: Mycobacterium tuberculosis; assay: Binding affinity to Mycobacterium tuberculosis ADK expressed in Escherichia coli BL21(DE3) cells assessed as relative STD enhancements of signal from H-2 at 500 uM by 1H STD NMR spectroscopy
[10] = tested on: Mycobacterium tuberculosis; assay: Binding affinity to Mycobacterium tuberculosis ADK expressed in Escherichia coli BL21(DE3) cells assessed as relative STD enhancements of signal from H-8 at 500 uM by 1H STD NMR spectroscopy
Adenosine kinase [11] = biological target: T1, Adenosine kinase; assay: Activity of human ADK expressed in Escherichia coli BL21(DE3) cells assessed as compound phosphorylation by measuring conversion of compound to 5'-phosphate; design: concentration or dose not given beside the values
Target sequence in this assay (P55263 2-362 limits assumed): as above

SMILES: Nc1ncnc2c1c(-c1ccc(COc3cccc4ccccc34)cc1)cn2[C@@H]1O[C@H](CO)[C@@H](O)[C@H]1O
- CC50 (BJ): > 100 µM
- CC50 (MRC5): 92.1 µM
- IC50 (Adenosine kinase [1]): > 20 µM
- IC50 [2]: > 10 µM
- MIC [3]: 16 µM (≈ 7.98 µg/mL)
- Activity [4]: inactive

SMILES: COc1ccc(-c2cn([C@@H]3O[C@H](CO)[C@@H](O)[C@H]3O)c3ncnc(N)c23)cc1
- CC50 (BJ): 21.9 µM
- CC50 (MRC5): 61.4 µM
- IC50 (Adenosine kinase [1]): > 5 µM
- IC50 [2]: > 10 µM
- MIC [3]: 16 µM (≈ 5.96 µg/mL)
- Activity [4]: inactive

SMILES: Nc1ncnc2c1ncn2[C@@H]1O[C@H](CO)[C@@H](O)[C@H]1O
- Activity (Adenosine kinase [5]): 100%
- Activity (Adenosine kinase [6]): 8%
- Activity (Adenosine kinase [7]): 20%
- Activity [8]: 100%
- Activity [9]: 44%
- Activity [10]: 58%

SMILES: Nc1ncnc2c1c(-c1ccc[nH]1)cn2[C@@H]1O[C@H](CO)[C@@H](O)[C@H]1O
- CC50 (BJ): > 100 µM
- CC50 (MRC5): 99.6 µM
- Activity (Adenosine kinase [11]): 6%
- IC50 (Adenosine kinase [1]): > 20 µM
- IC50 [2]: 4.4 µM
- MIC [3]: 62.5 µM (≈ 20.7 µg/mL)
- Activity [4]: inactive

SMILES: Nc1ncnc2c1c(-c1c[nH]cn1)cn2[C@@H]1O[C@H](CO)[C@@H](O)[C@H]1O
- CC50 (BJ): 0.12 µM
- CC50 (MRC5): 0.33 µM
- Activity (Adenosine kinase [11]): 47%
- IC50 (Adenosine kinase [1]): 13 µM
- IC50 [2]: > 10 µM
- MIC [3]: > 250 µM
- Activity [4]: inactive

SMILES: Nc1ncnc2c1c(-c1ccc3ccccc3c1)cn2[C@@H]1O[C@H](CO)[C@@H](O)[C@H]1O
- CC50 (BJ): 13.9 µM
- CC50 (MRC5): 13.6 µM
- IC50 [2]: 5.33 µM
- MIC [3]: 2 µM (≈ 0.785 µg/mL)
- Activity [4]: inactive

SMILES: Nc1ncnc2c1c(/C=C/c1ccccc1)cn2[C@@H]1O[C@H](CO)[C@@H](O)[C@H]1O
- CC50 (BJ): 19.6 µM
- CC50 (MRC5): 48.2 µM
- IC50 (Adenosine kinase [1]): > 10 µM
- IC50 [2]: 0.9 µM
- MIC [3]: 8 µM (≈ 2.95 µg/mL)
- Activity [4]: inactive

SMILES: COc1cc(-c2cn([C@@H]3O[C@H](CO)[C@@H](O)[C@H]3O)c3ncnc(N)c23)cc(OC)c1OC
- CC50 (BJ): > 100 µM
- CC50 (MRC5): > 100 µM
- IC50 (Adenosine kinase [1]): > 10 µM
- IC50 [2]: > 10 µM
- MIC [3]: 8 µM (≈ 3.46 µg/mL)
- Activity [4]: inactive

SMILES: CC(C)c1ccc(-c2cn([C@@H]3O[C@H](CO)[C@@H](O)[C@H]3O)c3ncnc(N)c23)cc1
- CC50 (BJ): 63.9 µM
- CC50 (MRC5): 52.9 µM
- IC50 (Adenosine kinase [1]): > 20 µM
- IC50 [2]: > 10 µM
- MIC [3]: 16 µM (≈ 6.15 µg/mL)
- Activity [4]: inactive

SMILES: Nc1ncnc2c1c(-c1cccs1)cn2[C@@H]1O[C@H](CO)[C@@H](O)[C@H]1O
- CC50 (BJ): 65.4 µM
- CC50 (MRC5): 39.4 µM
- Activity (Adenosine kinase [11]): 2%
- IC50 [2]: > 10 µM
- MIC [3]: 8 µM (≈ 2.79 µg/mL)
- Activity [4]: inactive

SMILES: Nc1ncnc2c1c(-c1cc[nH]n1)cn2[C@@H]1O[C@H](CO)[C@@H](O)[C@H]1O
- CC50 (BJ): 9.51 µM
- CC50 (MRC5): 0.18 µM
- Activity (Adenosine kinase [11]): 7%
- IC50 [2]: > 10 µM
- MIC [3]: > 250 µM
- Activity [4]: inactive

SMILES: Nc1ncnc2c1c(-c1ccc3c4c(cccc14)CC3)cn2[C@@H]1O[C@H](CO)[C@@H](O)[C@H]1O
- CC50 (BJ): 23.1 µM
- CC50 (MRC5): > 100 µM
- IC50 (Adenosine kinase [1]): > 10 µM
- IC50 [2]: > 10 µM
- MIC [3]: 16 µM (≈ 6.7 µg/mL)
- Activity [4]: inactive

SMILES: Cc1ccc(-c2cn([C@@H]3O[C@H](CO)[C@@H](O)[C@H]3O)c3ncnc(N)c23)cc1C
- CC50 (BJ): 57.3 µM
- CC50 (MRC5): 37.9 µM
- IC50 (Adenosine kinase [1]): > 20 µM
- IC50 [2]: 4.9 µM
- MIC [3]: 8 µM (≈ 2.96 µg/mL)
- Activity [4]: inactive

SMILES: Nc1ncnc2c1c(-c1cccc3ccccc13)cn2[C@@H]1O[C@H](CO)[C@@H](O)[C@H]1O
- CC50 (BJ): 90.6 µM
- CC50 (MRC5): 94.4 µM
- IC50 [2]: > 10 µM
- MIC [3]: 32 µM (≈ 12.6 µg/mL)
- Activity [4]: inactive

SMILES: Nc1ncnc2c1ncn2[C@@H]1O[C@H](COP(=O)(O)OP(=O)(O)OP(=O)(O)O)[C@@H](O)[C@H]1O
- Activity (Adenosine kinase [5]): 100%
- Activity (Adenosine kinase [6]): < 1%
- Activity (Adenosine kinase [7]): < 1%
- Activity [8]: 100%
- Activity [9]: 57%
- Activity [10]: 24%

SMILES: Nc1ncnc2c1c(-c1ccccc1)cn2[C@@H]1O[C@H](CO)[C@@H](O)[C@H]1O
- CC50 (BJ): 50.9 µM
- CC50 (MRC5): 21 µM
- IC50 [2]: > 10 µM
- MIC [3]: 8 µM (≈ 2.74 µg/mL)
- Activity [4]: inactive

SMILES: Nc1ncnc2c1c(-c1c[nH]nn1)cn2[C@@H]1O[C@H](CO)[C@@H](O)[C@H]1O
- CC50 (BJ): 0.08 µM
- CC50 (MRC5): 0.1 µM
- Activity (Adenosine kinase [11]): 37%
- IC50 (Adenosine kinase [1]): > 20 µM
- IC50 [2]: > 10 µM
- MIC [3]: > 250 µM
- Activity [4]: inactive
